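Five compound concentrations were applied to cells in 96-well plates for 48 hours; endpoints were derived by simple linear interpolation of the resulting dose-response curve. TGI marks complete inhibition of growth.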
How the values were obtained:
Test in all cases: inhibition of tumour cell growth, NCI panel, 48 h
KM12 colon = system: KM12 colon
M19-MEL melanoma = system: M19-MEL melanoma
SF-268 CNS = system: SF-268 CNS
RXF 393 renal = system: RXF 393 renal
OVCAR-5 ovarian = system: OVCAR-5 ovarian
MOLT-4 leukemia = system: MOLT-4 leukemia
OVCAR-3 ovarian = system: OVCAR-3 ovarian
IGROV1 ovarian = system: IGROV1 ovarian
SF-539 CNS = system: SF-539 CNS
UACC-62 melanoma = system: UACC-62 melanoma
UO-31 renal = system: UO-31 renal
M14 melanoma = system: M14 melanoma
LOX IMVI melanoma = system: LOX IMVI melanoma
HOP-62 NSCLC = system: HOP-62 NSCLC
KM20L2 colon = system: KM20L2 colon
HOP-92 NSCLC = system: HOP-92 NSCLC
COLO 205 colon = system: COLO 205 colon
DMS 273 small cell lung = system: DMS 273 small cell lung
DMS 114 small cell lung = system: DMS 114 small cell lung
NCI-H23 lung = system: NCI-H23 lung
NCI-H522 lung = system: NCI-H522 lung
HOP-18 NSCLC = system: HOP-18 NSCLC
A498 renal = system: A498 renal
786-0 renal = system: 786-0 renal
U251 CNS = system: U251 CNS
SK-MEL-28 melanoma = system: SK-MEL-28 melanoma
K-562 leukemia = system: K-562 leukemia
ACHN renal = system: ACHN renal
CCRF-CEM leukemia = system: CCRF-CEM leukemia
SK-OV-3 ovarian = system: SK-OV-3 ovarian
SNB-75 CNS = system: SNB-75 CNS
SF-295 CNS = system: SF-295 CNS
OVCAR-4 ovarian = system: OVCAR-4 ovarian
SW-620 colon = system: SW-620 colon
DLD-1 colon = system: DLD-1 colon
CAKI-1 renal = system: CAKI-1 renal
SK-MEL-2 melanoma = system: SK-MEL-2 melanoma
SK-MEL-5 melanoma = system: SK-MEL-5 melanoma
RPMI-8226 leukemia = system: RPMI-8226 leukemia
UACC-257 melanoma = system: UACC-257 melanoma
HT29 colon = system: HT29 colon
XF 498 CNS = system: XF 498 CNS
MALME-3M melanoma = system: MALME-3M melanoma
HL-60(TB) leukemia = system: HL-60(TB) leukemia
SR leukemia = system: SR leukemia
OVCAR-8 ovarian = system: OVCAR-8 ovarian
SN12C renal = system: SN12C renal
A549 NSCLC = system: A549 NSCLC
SNB-78 CNS = system: SNB-78 CNS
EKVX NSCLC = system: EKVX NSCLC
HCC-2998 colon = system: HCC-2998 colon
HCT-116 colon = system: HCT-116 colon
SNB-19 CNS = system: SNB-19 CNS
LXFL 529 NSCLC = system: LXFL 529 NSCLC
TK-10 renal = system: TK-10 renal
HCT-15 colon = system: HCT-15 colon
NCI-H460 lung = system: NCI-H460 lung

Measured: TGI

CCc1cccc(C)c1NC(=O)CCc1nnc(SC)o1
> 100 µM: all assays above
